Measurements taken from patent US20240335432A1, “THERAPEUTIC COMPOUND FOR NEURONAL CEROID LIPOFUSCINOSIS” (JCR PHARMACEUTICALS CO., LTD., priority 2021, published 2024).

How the values were obtained:
[1] = system: CLN2 cells (GM09668, GM09669, GM10570); assay: Quantification of autofluorescence as % Fluorescent Area by image analysis (HALO); format: cell-based, human; conditions: for % Fluorescent Area: 10 days culture
Experimental: (§1) Ceroid lipofuscinosis type 2 patient-derived fibroblasts (CLN2 cells, 7 donors: GM09668, GM09669, GM09404, GM10570, GM10672, GM16485, GM16486, Coriell Institute) and normal human dermal fibroblasts (NHDF cells, Cat.No.C-12300, PromoCell GmbH) were cultured in MEM (10370088, Gibco) containing 15% FBS (HyClone) and 1×GlutaMAX™ I (Gibco) (hereafter referred to as MEM). Each cell was diluted to 0.5×10^5 cells/mL with MEM and 15 mL of each cell suspension was seeded in T75 flask (3123-075, IWAKI Inc.). Cells were cultured under 37° C., 5% CO2 conditions.
(§2) Soraprazan (Symeres) was dissolved in Dimethyl sulfoxide (DMSO) to prepare soraprazan stock solution with concentrations of 1, 10, and 100 mM. Each soraprazan stock solution was diluted 1/100 concentration with MEM to prepare media with final concentrations of 0.1, 1, and 10 μM of soraprazan (0.0367, 0.367, and 3.67 μg/mL, respectively). In addition, DMSO was diluted to 1/100 concentration with MEM, which was used as a negative control (0 μM soraprazan). Hereinafter the prepared media herein were referred to as soraprazan-containing media collectively.
Each of the CLN2 cells and the NHDF cells cultured in Example 2-1 was washed twice with Dulbecco's Phosphate-Buffered Saline (DPBS, Gibco) and detached from the flask using 1 mL of 0.25% Trypsin-EDTA (Gibco). After 10 mL of MEM was added, each cell was collected in a 15 mL tube and centrifuged at room temperature at 1000 rpm for 5 minutes, and the supernatant was removed. Then, each cell was suspended at cell density of 2×10^5 cells/mL in one of soraprazan-containing media (0, 0.1, 1, and 10 μM). Then the cell suspension was dispensed in 96-well plates (655956, Gliner) with 0.4×10^5 cells per well (200 μL per well). Cells were cultured at 37° C., in the presence of 5% CO2 for 10 days. During the culture, the medium in each well was exchanged to new corresponding soraprazan-containing medium at 3, 6, and 9 days after seeding.
The observation of autofluorescence was performed after changing the medium to FluoroBrite DMEM (A1896701, Gibco) under GFP detection conditions (BZX filter GFP, excitation wavelength:470/40 nm, absorption wavelength:525/50 nm, dichroic mirror: 495 nm).
To quantify the fluorescence intensity of autofluorescence, the same tests as in Examples 2-1 to 2-4 were performed on 3 types of CLN2 cells (GM09668, GM09669, GM10570) using soraprazan-containing medium, which contained 0, 1, and 10 μM of soraprazan, respectively. It was confirmed again that the fluorescent intensity was reduced in cells cultured in soraprazan-containing medium particularly at a concentration of 10 μM. Then, the ratio of the area where fluorescent was detected in the image (fluorescent area) to the total area of the image occupied by the cells (% Fluorescent Area) was calculated using the image analysis software HALO® (v3.2.1851.354, Indica Labs). As the analysis algorithms, Indica Labs-Area Quantification FL v2 1.6 was used. Herein the area where fluorescent was detected, irrespective of the fluorescent intensity, was defined as fluorescent area, which corresponds the area where a certain amount of lipofuscin existed.

CLN2 cells = assay: Observation of autofluorescent material (lipofuscin) in CLN2 patient-derived cells by fluorescence microscopy; format: cell-based, human; conditions: CLN2 cells of 7 donors, 0.1, 1, 10 μM soraprazan, particularly at 10 μM, 10 days; FIGS. 1-8
Experimental: as §1, §2
Each of the CLN2 cells and the NHDF cells cultured in Example 2-1 was washed twice with Dulbecco's Phosphate-Buffered Saline (DPBS, Gibco) and detached from the flask using 1 mL of 0.25% Trypsin-EDTA (Gibco). […]

[2] = system: PPT1 knockout (KO) HEK293T cells or PPT1 KO CHO cells; assay: Lipofuscin fluorescence emission measurement in pathological model cells; format: cell-based; conditions: final soraprazan concentrations 100 μM-10 nM, versus 100% DMSO added
Experimental: Using mammalian cells in which a causative gene of neuronal ceroid lipofuscinosis has been knocked out as pathological model cells, a test can be performed in which an effect of removing lipofuscin accumulated in the cells by soraprazan is evaluated. For example, using PPT1 knockout (KO) HEK293T cells or PPT1 KO CHO cells, which are pathological model cells of neuronal ceroid lipofuscinosis type 1 (CLN1), a test can be performed in which an effect of removing lipofuscin accumulated in the cells by soraprazan is evaluated. Acquisition of a PPT1 KO cell line can be achieved using a conventionally known method.
Soraprazan is dissolved in dimethyl sulfoxide (DMSO) to a concentration of 10 mM. […]
Relative amounts of lipofuscin accumulated in cells can be measured by observing green autofluorescence emitted from the cells using a fluorescence microscope as described below. […] Then, under a fluorescence microscope, for example, excitation light with wavelength of 485 nm is irradiated to the cells and strength of emitted light from the cells with wavelength of 521 nm is measured. As a fluorescence microscope, for example, EVOS FLoid Imaging System (Thermo Fisher Scientific) can be used, and in this case, wavelengths of excitation light and observation light can be respectively set to 482 nm and 532 nm. […]

TPP1 knockout (KO) mice = assay: Administration test using pathological model animals, fluorescence intensities of tissues; format: in vivo, mouse; conditions: oral or intravenous soraprazan versus negative control group
Experimental: A test can be performed in which an effect of soraprazan on removing lipofuscin accumulated in animal tissues by soraprazan is evaluated using mammals in which a causative gene of neuronal ceroid lipofuscinosis has been knocked out as pathological model animals. For example, a test can be performed in which an effect of soraprazan on removing lipofuscin accumulated in mouse tissues by soraprazan is evaluated using TPP1 knockout (KO) mice, which are neuronal ceroid lipofuscinosis type 2 (CLN2) pathological model cells. Generation of the TPP1 KO mice can be performed using a conventionally known method. […]
After a certain time period, for example 0.25, 0.5, 1, 2, 4, 6, 8, or 24 hours after the last administration of a chronic treatment between one week and 12 months, all TPP1 KO mice are anesthetized with isoflurane and perfused with saline from the left ventricle for 4-5 minutes for blood removal. After that, tissues (brain, heart, lungs, liver, spleen, kidneys, quadriceps, thymus, thoracic vertebrae, femur) and peripheral blood, of which fluorescence intensities are to be measured, are collected, and are stored in physiological saline to prevent drying. Fluorescence intensity measurement of lipofuscin is performed using an appropriate fluorescence intensity measuring instrument. […]

Compound: COCCO[C@@H]1c2ccn3c(C)c(C)nc3c2N[C@H](c2ccccc2)[C@H]1O [Soraprazan, soraprazan]
- fluorescent intensity (autofluorescence) ([1]; 3 types of CLN2 cells, 1 and 10 μM soraprazan, particularly at 10 μM, FIGS. 9-11): reduced
- % Fluorescent Area ([1]; GM09668 cells, 1 μM soraprazan): 0.944%
- % Fluorescent Area ([1]; GM09668 cells, 10 μM soraprazan): 2.07%
- % Fluorescent Area ([1]; GM09669 cells, 1 μM soraprazan): 10.9%
- % Fluorescent Area ([1]; GM09669 cells, 10 μM soraprazan): 2.34%
- % Fluorescent Area ([1]; GM10570 cells, 1 μM soraprazan): 12.3%
- % Fluorescent Area ([1]; GM10570 cells, 10 μM soraprazan): 0.766%
- fluorescent intensity (autofluorescence, lipofuscin accumulation) (CLN2 cells): markedly reduced
- amount of lipofuscin accumulated in the cells (fluorescence intensity) [2]: decreases according to the concentration of soraprazan
- amount of lipofuscin accumulated in each of the tissues (fluorescence intensity) (TPP1 knockout (KO) mice): reduces the amount of lipofuscin
